Data as given in ChEMBL document CHEMBL1201862, “PubChem BioAssay data set” (2004).
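Five compound concentrations were applied to cells in 96-well plates for 48 hours; endpoints were derived by simple linear interpolation of the resulting dose-response curve. GI50 is the concentration that inhibits growth by half.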 Active and inactive are the calls of the source. Cut-off read from the data, not from the text of the source: active = GI50 up to about 1.1 µM and inactive = higher.

Columns and labels:
Test in all cases: DTP human tumour cell line panel, 48 h
[1] = test system: SN12C
[2] = test system: MOLT-4
[3] = test system: SK-MEL-28
[4] = test system: SF-295
[5] = test system: T47D
[6] = test system: MCF7
[7] = test system: COLO 205
[8] = test system: OVCAR-5
[9] = test system: NCI-H226
[10] = test system: UACC-257
[11] = test system: PC-3
[12] = test system: Malme-3M
[13] = test system: SNB-19
[14] = test system: DU-145
[15] = test system: U-251
[16] = test system: CCRF-CEM
[17] = test system: OVCAR-4
[18] = test system: SK-MEL-5
[19] = test system: SW-620
[20] = test system: UACC-62

Measured: GI50

O=C1OC(C(O)CO)C(O)=C1O (stereo not drawn)
inactive: [1] > 100 µM | [2] > 100 µM | [3] > 100 µM | [4] > 100 µM | [5] > 100 µM | [6] > 100 µM | [7] > 100 µM | [8] > 100 µM | [9] > 100 µM | [10] > 100 µM | [11] > 100 µM | [12] > 100 µM | [13] > 100 µM | [14] > 100 µM | [15] > 100 µM | [16] > 10 µM | [17] > 100 µM | [18] > 100 µM | [19] > 100 µM

OCCn1cnc2c(SCc3ccccc3)ncnc21
inactive: [1] > 100 µM | [3] > 100 µM | [4] > 100 µM | [5] > 100 µM | [6] > 100 µM | [7] 95.5 µM | [8] > 100 µM | [9] > 100 µM | [20] > 100 µM | [10] > 100 µM | [11] 61 µM | [12] > 100 µM | [13] > 100 µM | [14] > 100 µM | [15] 52.4 µM | [16] 39.1 µM | [17] > 100 µM | [18] > 100 µM | [19] > 100 µM

Cc1ccc(C2CC(=O)CC(c3ccc(C)cc3)C23C(=O)NC(=O)NC3=O)cc1 (stereo not drawn)
inactive: [1] > 100 µM | [2] 45 µM | [3] > 100 µM | [4] > 100 µM | [5] > 100 µM | [6] > 100 µM | [7] > 100 µM | [8] > 100 µM | [9] > 100 µM | [20] > 100 µM | [10] > 100 µM | [11] > 100 µM | [12] > 100 µM | [13] > 100 µM | [14] > 100 µM | [15] > 100 µM | [16] > 100 µM | [17] 71.1 µM | [18] > 100 µM | [19] > 100 µM

N#Cc1nc(COCCOCc2ccccc2)oc1N
inactive: [1] > 100 µM | [2] > 100 µM | [3] > 100 µM | [4] > 100 µM | [5] > 100 µM | [6] > 100 µM | [7] > 100 µM | [8] > 100 µM | [9] > 100 µM | [20] > 100 µM | [10] > 100 µM | [11] > 100 µM | [12] > 100 µM | [13] > 100 µM | [14] > 100 µM | [15] > 100 µM | [16] 30 µM | [17] > 100 µM | [18] > 100 µM | [19] > 100 µM

CC(C)(C)OC(=O)[C@@H]1CCC(=O)N1C1(c2ccccc2)c2ccccc2-c2ccccc21
inactive: [1] 39.3 µM | [2] 25.9 µM | [3] 28.6 µM | [4] 19.1 µM | [5] 44.9 µM | [6] 67.6 µM | [7] 21.4 µM | [8] 93.1 µM | [9] > 100 µM | [20] 33.6 µM | [10] 77.1 µM | [11] 29.4 µM | [12] 33.3 µM | [13] > 100 µM | [14] 97.1 µM | [15] 25.7 µM | [16] 23.8 µM | [17] 28.6 µM | [18] 23.9 µM | [19] 30.5 µM

N#CCCC1(CCC#N)S(=O)(=O)OCCOS1(=O)=O
inactive: [1] 29.6 µM | [2] 24.7 µM | [3] 50 µM | [4] 8.99 µM | [5] 43.8 µM | [6] 34.2 µM | [7] 85.9 µM | [8] > 100 µM | [9] 41.5 µM | [20] 9.4 µM | [10] > 100 µM | [11] 63.4 µM | [12] 46.1 µM | [13] 48.8 µM | [14] 58.3 µM | [15] 24.7 µM | [16] 28.7 µM | [17] 20.7 µM | [18] 47.9 µM | [19] 24.1 µM

C/C(=N\N)C(CN1CCOCC1)C(c1ccccc1)c1c(O)c2ccccc2oc1=O (stereo not drawn)
inactive: [1] > 100 µM | [2] 40.5 µM | [3] > 100 µM | [4] > 100 µM | [5] 12.4 µM | [6] 56 µM | [7] > 44.8 µM | [8] > 100 µM | [9] > 100 µM | [10] > 100 µM | [11] > 100 µM | [12] > 64.7 µM | [13] > 100 µM | [14] > 100 µM | [15] > 76.9 µM | [16] 23.3 µM | [17] 77.3 µM | [18] > 64.9 µM | [19] > 100 µM

Cc1c(-c2ccccc2)c(C#N)c2nnn(-c3ccc([N+](=O)[O-])cc3)c(=O)n12
inactive: [1] 22.4 µM | [3] 32.6 µM | [4] 18.7 µM | [5] 21.9 µM | [6] 16.2 µM | [7] 7.35 µM | [8] 27.4 µM | [9] 13.2 µM | [20] 37.1 µM | [10] > 100 µM | [11] 3.48 µM | [12] 24.2 µM | [14] 5.38 µM | [15] 9.93 µM | [16] 8.43 µM | [17] 10.4 µM | [18] 33 µM | [19] 7.78 µM

O=C1CSC(c2ccccc2O)N1c1ccc(-c2ccc(-n3c(-c4ccccc4)nc4ccccc4c3=O)cc2)cc1 (stereo not drawn)
inactive: [1] 74 µM | [2] 25.4 µM | [3] 37.9 µM | [4] 22.5 µM | [5] 23 µM | [6] 28.1 µM | [7] 21.6 µM | [8] 43.1 µM | [9] 37.6 µM | [20] 27.7 µM | [10] 50.1 µM | [11] 27.7 µM | [12] 17.2 µM | [13] 50.6 µM | [14] 49 µM | [15] 33.7 µM | [16] 26.4 µM | [17] 31 µM | [19] 22.8 µM

CCOP(=O)(OCC)C(F)(F)Cc1cnc(C)c2c1COC(C)(C)O2
inactive: [1] > 10 µM | [2] > 10 µM | [3] > 10 µM | [4] > 10 µM | [5] > 10 µM | [6] > 10 µM | [7] > 10 µM | [8] > 10 µM | [9] > 10 µM | [20] > 10 µM | [10] > 10 µM | [11] > 10 µM | [12] > 10 µM | [13] > 10 µM | [14] > 10 µM | [15] > 10 µM | [16] > 10 µM | [17] > 10 µM | [18] > 10 µM | [19] > 10 µM

Cc1cccc(NC(=S)NNC(=O)c2cc(-c3ccccc3)nc3ccccc23)c1
inactive: [1] 40.1 µM | [2] 27.5 µM | [3] 38.4 µM | [5] 34.1 µM | [6] 20.5 µM | [7] 19.5 µM | [8] 35.5 µM | [9] 34.4 µM | [20] 38.5 µM | [10] 33.4 µM | [11] 27.5 µM | [12] 25 µM | [13] 37.8 µM | [14] 34.4 µM | [15] 30.1 µM | [16] 12.7 µM | [17] 57.9 µM | [18] 19.9 µM | [19] 36.3 µM

Cc1ccc(NC(=O)c2cc(S(=O)(=O)Nc3nc4cccnc4[nH]3)c(SSc3cc(Cl)c(C(=O)Nc4ccc(C)cc4)cc3S(=O)(=O)Nc3nc4cccnc4[nH]3)cc2Cl)cc1
inactive: [1] > 100 µM | [2] > 100 µM | [3] > 100 µM | [4] > 100 µM | [5] > 100 µM | [6] > 100 µM | [7] > 100 µM | [8] > 100 µM | [9] > 100 µM | [20] > 100 µM | [10] > 100 µM | [11] > 100 µM | [12] > 100 µM | [13] > 100 µM | [14] > 100 µM | [15] > 100 µM | [16] > 100 µM | [17] > 100 µM | [18] > 100 µM | [19] > 100 µM

O=P(NC12CC3CC(CC(C3)C1)C2)(N1CC1)N1CC1
inactive: [1] 10.5 µM | [2] 3.3 µM | [3] > 100 µM | [4] 10 µM | [5] 94.8 µM | [6] 9.71 µM | [7] > 100 µM | [8] > 100 µM | [9] 41.6 µM | [20] 4.16 µM | [10] > 100 µM | [11] > 100 µM | [12] 84.9 µM | [13] 17.1 µM | [14] 6.31 µM | [15] 27.4 µM | [16] 7.24 µM | [17] > 100 µM | [18] 34.9 µM | [19] > 86.5 µM

CCN(C(=O)N[C@H](C(=O)N[C@@H](C)C(=O)OC)C(C)C)c1ccccc1
inactive: [1] 33 µM | [2] 65.2 µM | [3] 33.1 µM | [4] 70 µM | [5] 29.8 µM | [6] 31 µM | [7] 20 µM | [8] > 100 µM | [9] > 100 µM | [20] 22.1 µM | [10] 20 µM | [11] 39.1 µM | [12] 20 µM | [13] 64.3 µM | [14] > 100 µM | [15] 28.9 µM | [16] 56 µM | [17] 65 µM | [18] 36.8 µM | [19] 39.2 µM
